According to PMC11971462, “Generation and validation of a novel multitarget small molecule in glioblastoma” (Cell Death & Disease, 2025):

Legend:
U87-MG cells = test: Western blot of HDAC6, HDAC1, acetyl α-tubulin, acetyl H3; format: cell-based, human
Experimental: (§1) Protein lysates were resolved using sodium dodecyl sulfate-polyacrylamide gel electrophoresis. Primary antibodies against HDAC1 (Ab109411, abcam), HDAC6 (7558S, Cell Signaling), acetyl H3 (9649, Cell Signaling), acetyl α-tubulin (Ab24610, abcam), acetylated-Lysine (9441, Cell Signaling) and β-actin (A5441, Sigma-Aldrich) were used. Membranes were then incubated with the corresponding anti-rabbit (7074S, Cell Signaling) or anti-mouse (7076S, Cell Signaling) secondary antibody conjugated to horseradish peroxidase (HRP), and NOVEX ECL Chemi Substrate (ThermoFisher) or SuperSignal West Femto Maximum Sensitivity Substrate (ThermoFisher) was used for protein detection by iBright imaging system.

GNS166 cells [1] = test: as above; format: cell-based, human; details: U87-MG and glioma stem cells (GNS166)
Experimental: as §1

GNS166 cells [2] = test: EdU cell proliferation assay; format: cell-based, human; details: GNS166, 5 µM
Experimental: Click-iT™ EdU Cell Proliferation Kit for Imaging (Invitrogen) was used according to the manufacturer’s instructions. Briefly, GNS166 cells were seeded and maintained overnight before DDI199 treatment. After 48 h, fresh culture medium containing 10 μM of EdU was added for 24 h and then, cells were fixed with 4% paraformaldehyde. Axio Observer 7 epifluorescence microscope was used to take pictures, which were later quantified in Qupath.

glioma cells = test: MTT cell viability, summary for glioma cells; format: cell-based; details: Homo sapiens, 72 h, summary statement, read-out: IC50 cell viability in different glioma cells
Experimental: (§2) MTT assay was used to study cell viability. For that, cells were seeded at a density of 1.5 × 10^3 cells/well in 96-well plates, incubated overnight and then treated with increasing concentrations of DDI199. After 72 h of treatment, MTT absorbance was measured at 570 nm. GraphPad Prism software was used to analyze results and calculate IC50 values.

[3] = test system: gastric, pancreatic and lung cancer cells; test: MTT cell viability, summary for other tumor cells; format: cell-based; details: Homo sapiens, 72 h, summary statement
Experimental: as §2

In the case of C#CCN(Cc1cc2cc(OCCCN3CCCCC3)ccc2n1S(=O)(=O)c1ccccc1)C(=O)CCCCCCC(=O)NO [DDI199], the “acetylated H3 level” value (U87-MG cells; U87-MG, 0.5, 1 and 10 µM) is reported as “increased their levels with increasing concentrations”, the “acetylated α-tubulin level” value (U87-MG cells; U87-MG, 0.5, 1 and 10 µM) is reported as “increased their levels with increasing concentrations” and the HDAC1 protein level (U87-MG cells; U87-MG, western blot) is reported as “decrease”. The HDAC6 protein level (U87-MG cells; U87-MG, western blot) was “did not alter”, the “acetylated α-tubulin and acetylated H3 versus reference inhibitors” value (GNS166 cells [1]) was “higher acetylated α-tubulin and acetylated H3 increase than SAHA and Tubastatin A” and the EdU positive cells (GNS166 cells [2]) was “almost blocking completely”. The IC50 (glioma cells) was < 5 µM and the IC50 [3] was < 3 µM.
